# Measured values taken from the Kinase Knowledgebase extract (Sharma et al. 2016).
# Target: EGFR (UniProt P00533)
# Sequence (P00533 whole entry, looked up): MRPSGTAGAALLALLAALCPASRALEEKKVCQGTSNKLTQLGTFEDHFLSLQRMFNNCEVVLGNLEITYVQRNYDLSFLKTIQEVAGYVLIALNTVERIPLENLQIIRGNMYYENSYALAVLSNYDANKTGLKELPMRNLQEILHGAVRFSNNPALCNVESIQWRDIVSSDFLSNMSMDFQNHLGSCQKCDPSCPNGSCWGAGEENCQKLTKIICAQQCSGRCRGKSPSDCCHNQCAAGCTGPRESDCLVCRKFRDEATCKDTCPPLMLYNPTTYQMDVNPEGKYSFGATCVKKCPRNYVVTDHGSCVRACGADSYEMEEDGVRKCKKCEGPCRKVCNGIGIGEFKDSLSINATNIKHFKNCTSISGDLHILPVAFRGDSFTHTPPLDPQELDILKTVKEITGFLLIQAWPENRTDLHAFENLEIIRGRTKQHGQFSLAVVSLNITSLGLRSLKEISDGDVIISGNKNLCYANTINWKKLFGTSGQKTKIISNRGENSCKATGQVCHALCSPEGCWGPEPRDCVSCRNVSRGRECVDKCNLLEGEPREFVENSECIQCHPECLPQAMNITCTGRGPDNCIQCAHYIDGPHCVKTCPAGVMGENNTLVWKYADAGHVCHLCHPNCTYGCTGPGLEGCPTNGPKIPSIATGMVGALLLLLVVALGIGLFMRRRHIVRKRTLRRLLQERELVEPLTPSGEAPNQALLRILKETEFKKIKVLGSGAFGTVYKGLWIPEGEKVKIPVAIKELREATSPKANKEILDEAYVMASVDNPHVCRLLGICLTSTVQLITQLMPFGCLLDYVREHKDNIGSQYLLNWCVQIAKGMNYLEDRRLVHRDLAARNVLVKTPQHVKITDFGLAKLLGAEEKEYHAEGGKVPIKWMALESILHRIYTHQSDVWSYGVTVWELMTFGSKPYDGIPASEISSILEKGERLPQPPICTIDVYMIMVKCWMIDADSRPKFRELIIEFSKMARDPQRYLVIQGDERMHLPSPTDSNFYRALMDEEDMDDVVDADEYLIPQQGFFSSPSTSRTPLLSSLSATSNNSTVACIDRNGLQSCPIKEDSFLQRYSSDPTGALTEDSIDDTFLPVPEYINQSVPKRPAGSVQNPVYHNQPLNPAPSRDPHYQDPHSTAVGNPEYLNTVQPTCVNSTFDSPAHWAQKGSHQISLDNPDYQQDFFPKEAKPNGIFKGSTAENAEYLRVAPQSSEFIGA
row,Structure (SMILES),IC50 [µM]
1,COC(=O)c1cn2ncnc(C3C(=O)Nc4nc(C)ncc43)c2c1C (stereo not drawn),0.003 to 25
2,COC(=O)c1cn2ncnc(C3C(=O)Nc4ncccc43)c2c1C (stereo not drawn),0.003 to 25
3,CCOC(=O)c1cn2ncnc(NCCc3ccccc3)c2c1CC,0.003 to 25
4,CCOC(=O)c1cn2ncnc(NCC3CCCCC3)c2c1CC,0.003 to 25
5,COc1cn2ncnc(C3C(=O)Nc4ccccc43)c2c1OC (stereo not drawn),0.003 to 25
6,COC(=O)c1cn2ncnc(Nc3cccc(C(=O)O)c3)c2c1C,0.003 to 25
7,COC(=O)c1cn2ncnc(Nc3ccc(Br)c(O)c3)c2c1C,0.003 to 25
8,Cc1c(C(=O)NCCN2CCCC2)cn2ncnc(C3C(=O)Nc4ccccc43)c12 (stereo not drawn),0.003 to 25
9,COC(=O)c1cn2ncnc(Nc3ccc(C)c(C#N)c3)c2c1C,0.003 to 25
10,COC(=O)c1cn2ncnc(C3C(=O)Nc4cc(C(F)(F)F)ccc43)c2c1C (stereo not drawn),0.003 to 25
11,CCOC(=O)c1cn2ncnc(Nc3ccc(F)c(Cl)c3)c2c1CC,0.003 to 25
12,COC(=O)c1cn2ncnc(Nc3cccc4cnccc34)c2c1C,0.003 to 25
13,Clc1ccc(Nc2ncnn3c(Br)ccc23)cc1,0.003 to 25
14,Clc1ccc(Nc2ncnn3cccc23)cc1,0.003 to 25
15,CCCc1ccc(Nc2ncnn3cc(C(=O)OC)c(C)c23)cc1O,0.003 to 25
16,COC(=O)c1cn2ncnc(C3C(=O)Nc4ccc(NS(C)(=O)=O)cc43)c2c1C (stereo not drawn),0.003 to 25
17,Cc1c(C(=O)CCN2CCN(C)CC2)cn2ncnc(C3C(=O)Nc4ccccc43)c12 (stereo not drawn),0.003 to 25
18,Cc1ccc(Nc2ncnn3cc(N)c(C)c23)cc1O,0.003 to 25
19,CCNC(=O)c1cn2ncnc(Nc3ccc4c(cnn4Cc4ccccc4)c3)c2c1CC,0.003 to 25
20,Cc1nc(Nc2ccc(C)c(O)c2)c2c(C)c(C(N)=O)cn2n1,0.003 to 25
21,CCOC(=O)c1cn2ncnc(Nc3cccc4c3cnn4Cc3ccccc3)c2c1CC,0.003 to 25
22,Cc1ccc(Nc2ncnn3cc(C(=O)NCCCS(C)(=O)=O)c(C)c23)cc1O,0.003 to 25
23,Cc1c(C(=O)NCCCN2CCOCC2)cn2ncnc(C3C(=O)Nc4ccc(F)cc43)c12 (stereo not drawn),0.003 to 25

row,Structure (SMILES),IC50 [µM]
1,COC(=O)c1cn2ncnc(Nc3ccc(NS(=O)(=O)c4ccccc4)c(O)c3)c2c1C,0.003 to 25
2,COC(=O)c1cn2ncnc(Nc3ccc(C)c(O)c3)c2c1C,0.003 to 25
3,Cc1c(C(=O)NCCCN2CCOCC2)cn2ncnc(Nc3ccc(Br)c(O)c3)c12,0.003 to 25
4,COc1c(C(=O)NCCCn2cncn2)cn2ncnc(C3C(=O)Nc4ccccc43)c12 (stereo not drawn),0.003 to 25
5,COC(=O)c1cn2ncnc(Nc3cc(CO)ccc3C)c2c1C,0.003 to 25
6,COC(=O)c1cn2ncnc(Nc3ccc(C)c(S(N)(=O)=O)c3)c2c1C,0.003 to 25
7,COc1c(OCc2ccccc2)cn2ncnc(C3C(=O)Nc4ccccc43)c12 (stereo not drawn),0.003 to 25
8,CCc1c(CO)c(Br)n2ncnc(Nc3ccc4c(cnn4Cc4ccccc4)c3)c12,0.003 to 25
9,CCOC(=O)c1cn2ncnc(NCCCn3ccnc3)c2c1CC,0.003 to 25
10,COC(=O)c1cn2ncnc(N(C)c3ccc(C)c(O)c3)c2c1C,0.003 to 25
11,Cc1c(C(=O)NCCCN2CCCC2)cn2ncnc(C3C(=O)Nc4ccccc43)c12 (stereo not drawn),0.003 to 25
12,COC(=O)c1cn2ncnc(Nc3cccc(NS(C)(=O)=O)c3)c2c1C,0.003 to 25
13,Cc1c(OCCn2cncn2)cn2ncnc(C3C(=O)Nc4ccccc43)c12 (stereo not drawn),0.003 to 25
14,Cc1c(C(=O)OCc2ccccc2)cn2ncnc(C3C(=O)Nc4ccccc43)c12 (stereo not drawn),0.003 to 25
15,CCc1ccn2ncnc(Nc3ccc(C)c(O)c3)c12,0.003 to 25
16,COCCNC(=O)c1cn2ncnc(C3C(=O)Nc4ccccc43)c2c1C (stereo not drawn),0.003 to 25
17,CCOC(=O)c1cn2ncnc(Nc3ccc(F)c(Cl)c3)c2c1Cc1ccccc1,0.003 to 25
18,Cc1c(C(=O)NCCCN2CCN(C)CC2)cn2ncnc(C3C(=O)Nc4ccccc43)c12 (stereo not drawn),0.003 to 25
19,COc1cn2ncnc(Nc3ccc(C)c(O)c3)c2c1OC,0.003 to 25
20,COC(=O)c1cn2ncnc(Nc3ccc(OC)c(OC)c3)c2c1C,0.003 to 25
21,COC(=O)c1cn2ncnc(Nc3ccc(C)cn3)c2c1C,0.003 to 25
22,CCc1c(C(=O)NCCCn2ccnc2)cn2ncnc(Nc3ccc4c(cnn4Cc4ccccc4)c3)c12,0.003 to 25
23,CCOC(=O)c1cn2ncnc(Nc3ccc4cn[nH]c4c3)c2c1CC,0.003 to 25

row,Structure (SMILES),IC50 [µM]
1,CCOC(=O)c1cn2ncnc(N[C@H]3CC[C@H](O)CC3)c2c1CC,0.003 to 25
2,COC(=O)c1cn2ncnc(Nc3ccc4c(C)cc(=O)[nH]c4c3)c2c1C,0.003 to 25
3,CCOC(=O)c1cn2ncnc(Nc3ccc(OC)nc3)c2c1CC,0.003 to 25
4,COCCCNC(=O)c1cn2ncnc(Nc3ccc(C)c(O)c3)c2c1C,0.003 to 25
5,COC(=O)c1cn2ncnc(Nc3ccc4c(c3)N(C(C)=O)CC4)c2c1C,0.003 to 25
6,CCOC(=O)c1cn2ncnc(Nc3ccc(C)c(NS(C)(=O)=O)c3)c2c1CC,0.003 to 25
7,CCc1c(C(=O)NCCN2CCOCC2)c(Br)n2ncnc(Nc3ccc4c(cnn4Cc4ccccc4)c3)c12,0.003 to 25
8,Cc1ccc2c(Nc3ccc(Br)cc3F)ncnn12,0.003 to 25
9,Cc1c(OCCCn2nccn2)cn2ncnc(Nc3cccc(Br)c3)c12,0.003 to 25
10,Cc1c(NC(=O)NCCCN2CCOCC2)cn2ncnc(C3C(=O)Nc4ccccc43)c12 (stereo not drawn),0.003 to 25
11,Cc1nc(C2C(=O)Nc3ccccc32)c2c(C)c(C(N)=O)cn2n1 (stereo not drawn),0.003 to 25
12,CCOC(=O)c1cn2ncnc(NCCOC)c2c1CC,0.003 to 25
13,COC(=O)c1cn2ncnc(C3C(=O)Nc4ccc(S(=O)(=O)NCCN5CCOCC5)cc43)c2c1C (stereo not drawn),0.003 to 25
14,Cc1c(C(=O)NCCCn2nccn2)cn2ncnc(C3C(=O)Nc4ccccc43)c12 (stereo not drawn),0.003 to 25
15,CCOC(=O)c1cn2ncnc(N[C@H](C)c3ccccc3)c2c1CC,0.003 to 25
16,COC(=O)c1cn2ncnc(Nc3ccc4c(cnn4Cc4ccccc4)c3)c2c1C,0.003 to 25
17,CCOC(=O)c1cn2ncnc(Nc3ccc(OC)cc3)c2c1CC,0.003 to 25
18,COc1c(NC(=O)OCc2ccccc2)cn2ncnc(C3C(=O)Nc4ccccc43)c12 (stereo not drawn),0.003 to 25
19,Cc1c(NS(C)(=O)=O)cn2ncnc(C3C(=O)Nc4ccccc43)c12 (stereo not drawn),0.003 to 25
20,CCOC(=O)c1cn2ncnc(Cl)c2c1CC,0.003 to 25
21,CCc1c(C)c2c(Nc3ccc(C)c(O)c3)ncnn2c1C,0.003 to 25
22,Cc1nc(C2C(=O)Nc3ccccc32)c2c(C)c(C(=O)NCCCN3CCOCC3)cn2n1 (stereo not drawn),0.003 to 25
23,Cc1c(C(=O)NCCCN2CCOCC2)cn2ncnc(Nc3ccc(Br)cc3)c12,0.003 to 25

row,Structure (SMILES),IC50 [µM]
1,COc1c(NCCCCN2CCN(C)CC2)cn2ncnc(C3C(=O)Nc4ccccc43)c12 (stereo not drawn),0.003 to 25
2,CCc1c(C(=O)OC)cn2ncnc(Nc3ccc(OC)nc3)c12,0.003 to 25
3,COC(=O)c1cn2ncnc(-n3[nH]c(C)cc3=O)c2c1C,0.003 to 25
4,COC(=O)c1cn2ncnc(N3CC(=O)Nc4ccccc43)c2c1C,0.003 to 25
5,CCOC(=O)c1cn2ncnc(Nc3ccc(Br)cc3)c2c1CC,0.003 to 25
6,Cc1cc2c(Nc3ccc(Br)cc3F)ncnn2c1,0.003 to 25
7,COC(=O)c1cn2ncnc(Nc3ccc(C)c(N)c3)c2c1C,0.003 to 25
8,COC(=O)c1cn2ncnc(C3C(=O)Nc4cc(C#N)ccc43)c2c1C (stereo not drawn),0.003 to 25
9,CCc1c(C(=O)O)cn2ncnc(Nc3ccc(OC)nc3)c12,0.003 to 25
10,COc1c(C(=O)NCCCN2CCOCC2)cn2ncnc(C3C(=O)Nc4ccccc43)c12 (stereo not drawn),0.003 to 25
11,CCc1c(CO)cn2ncnc(Nc3ccc4c(cnn4Cc4ccccc4)c3)c12,0.003 to 25
12,Cc1ccc(Nc2ncnn3cc(C(=O)NCCN4CCCC4)c(C)c23)cc1O,0.003 to 25
13,COC(=O)c1cc2c(Nc3ccc(F)c(Cl)c3)ncnn2c1,0.003 to 25
14,COC(=O)c1cn2ncnc(C3C(=O)Nc4ccc(S(=O)(=O)N(C)C)cc43)c2c1C (stereo not drawn),0.003 to 25
15,CCc1c(C(=O)NCCN2CCCC2)cn2ncnc(Nc3ccc(OC)nc3)c12,0.003 to 25
16,Cc1ccc(Nc2nc(N(C)C)nn3cccc23)cc1O,0.003 to 25
17,CCOC(=O)c1cn2ncnc(Nc3ccc(OC)nc3)c2c1OC,0.003 to 25
18,COC(=O)c1cn2ncnc(Nc3cccc(C(=O)NN)c3)c2c1C,0.003 to 25
19,CCOC(=O)c1cn2ncnc(Nc3ccc(C)c(O)c3)c2c1Cc1ccccc1,0.003 to 25
20,CCOC(=O)c1cn2ncnc(Nc3cccc(Br)c3)c2c1CC,0.003 to 25
21,COC(=O)c1cn2ncnc(C3C(=O)Nc4cc(S(C)(=O)=O)ccc43)c2c1C (stereo not drawn),0.003 to 25
22,CCc1c(C(=O)N(CCCn2ccnc2)c2ccccn2)cn2ncnc(Nc3ccc4c(cnn4Cc4ccccc4)c3)c12,0.003 to 25
23,COc1ccc(Nc2ncnn3cc(C(=O)NCCCN4CCOCC4)c(C)c23)cc1O,0.003 to 25

row,Structure (SMILES),IC50 [µM]
1,Cc1c(C(=O)NCCN2CCOCC2)cn2ncnc(C3C(=O)Nc4ccccc43)c12 (stereo not drawn),0.003 to 25
2,COC(=O)c1cn2ncnc(Nc3ccc(C)c(OC)c3)c2c1C,0.003 to 25
3,Cc1c(C(=O)NCCCCN2CCOCC2)cn2ncnc(C3C(=O)Nc4ccccc43)c12 (stereo not drawn),0.003 to 25
4,CCc1c(C(=O)OC)cn2ncnc(Nc3ccc4c(cnn4Cc4ccccc4)c3)c12,0.003 to 25
5,Cc1c(C(=O)NCCCN2CCOCC2)cn2ncnc(C3C(=O)Nc4ccccc43)c12 (stereo not drawn),0.003 to 25
6,Cc1ccc(Nc2ncnn3ccc(C)c23)c(O)c1,0.003 to 25
7,COC(=O)c1cn2ncnc(-n3[nH]c(=O)c4ccccc43)c2c1C,0.003 to 25
8,CCOC(=O)c1cn2ncnc(Nc3ccc(C)c(O)c3)c2c1C(C)C,0.003 to 25
9,Cc1ccc(Nc2ncnn3cc(C(=O)NCCCN4CCOCC4)c(C)c23)cc1O,0.003 to 25
10,COC(=O)c1cn2ncnc(Nc3ccc(OC)cc3)c2c1C,0.003 to 25
11,Cc1c(C(=O)NCC2CCCO2)cn2ncnc(C3C(=O)Nc4ccccc43)c12 (stereo not drawn),0.003 to 25
12,COC(=O)c1cn2ncnc(Nc3ccc4cc[nH]c4c3)c2c1C,0.003 to 25
13,Cc1ccc(Nc2ncnn3cc(C(=O)NCCCCN(C)C)c(C)c23)cc1O,0.003 to 25
14,Cc1ccc(Nc2ncnn3cccc23)cc1O,0.003 to 25
15,Cc1ccc(Nc2ncnn3cc(C(=O)O)c(C)c23)cc1O,0.003 to 25
16,COC(=O)c1cn2ncnc(Nc3ccc(F)c(Cl)c3)c2c1CCCOCc1ccccc1,0.003 to 25
17,COC(=O)c1cn2ncnc(Nc3ccc4[nH]nnc4c3)c2c1C,0.003 to 25
18,Cc1c(C(=O)O)cn2ncnc(C3C(=O)Nc4ccccc43)c12 (stereo not drawn),0.003 to 25
19,COc1c(C(=O)NCCN2CCCC2)cn2ncnc(Nc3ccc(Br)cc3F)c12,0.003 to 25
20,COC(=O)c1cn2ncnc(Nc3ccc(Br)cc3F)c2c1C,0.003 to 25
21,COC(=O)c1cc2c(Nc3ccc4c(cnn4Cc4ccccc4)c3)ncnn2c1,0.003 to 25
